Data reported in patent US6143719A, “Bradykinin analogs as selective thrombin inhibitors” (The Regents of the University of Michigan, priority 1996, dated 2000).
pIC50: −log10 of the molar value. Like-named read-outs stand apart in the source and are kept apart here. Ends that are not written are not given here.

Legend:
[1] = test system: platelets; assay type: cell-based, human; settings: washed platelets, α-thrombin 1 nM
Method: Fresh whole blood was collected and mixed with 0.013 M sodium citrate and platelet-rich plasma was prepared according to the method of Meloni et al., J. Biol. Chem. 266, 6786, 1991. Washed platelets were prepared by gel filtration over Sepharose 2B columns in Hepes-Tyrode's buffer (0.137 M NaCl, 3 mM KCl, 0.4 mM Na H2 PO4, 12 mM NaHCO3, 1 mM MgCl2, 14.7 mM Hepes containing 20 mM glucose and 0.2% bovine serum albumin, pH 7.35). Platelets for aggregation and secretion studies were incubated according to the method of Schmaier et al., Blood 56, 1013, 1980 with 5-[^14 C]hydroxytryptamine for 30 min at 37° C. The washed platelets (2×10^8 /ml, final concentration radiolabeled with 5-[^14 C]hydroxytryptamine) were added to a cuvette of an aggregometer (Chronolog Corp., Havertown, Pa.), standardized using the protocol of Meloni et al., supra. After the addition of ZnCl2, final concentration 50 μM, purified HK (1 μM) or various concentrations of the peptides (0.1 to 3 mM) or buffer alone was added to the cuvette. Once the baseline stabilized, α-thrombin [0.125 U/ml (1 nM) final concentration] was then added to initiate platelet activation. Stirred platelets were allowed to incubate with o-thrombin and additions for 1 min. In other experiments, platelets were stimulated with TRAP (0.625 to 2.5 μM), ADP (1-5 μM)(Sigma), collagen (1.25 μg/ml) (Horm, Munich, Germany), or U-46619 (1 μM)(Calbiochem Behring, San Diego, Calif.). Additional experiments were performed with washed platelets stimulated with γ-thrombin (1 nM) in the presence of human fibrinogen (100 mg/dl). Both γ-thrombin and human fibrinogen were purchased from Enzyme Research Laboratories, South Bend, Ind. At the conclusion of the incubation, the entire platelet sample was centrifuged at 10,900 xg (Model E, Beckman Instruments, Palo Alto, Calif.) over a 0.135 mM formaldehyde, 5 mM EDTA solution (1 part of formaldehyde-EDTA to 4 parts of platelet suspension) and stored on ice until an aliquot of the supernatant was assayed for 5-[^14 C]hydroxytryptamine secretion. Percent secretion was determined by the ratio of the loss of 5-[^14 C]hydroxytryptamine in the supernatant of the agonist-treated specimen to the loss of 5-[^14 C]hydroxytryptamine in the supernatant of the platelet lysate after the value of the control supernatant (i.e., the level of 5-[^14 C]hydroxytryptamine in a unstimulated sample) was subtracted from both.

[2] = test system: human platelets; assay type: cell-based
Method: The cytoplasmic free Ca^2+ concentration ([Ca^2+ ]i) was measured using the fluorescent Ca^2 + indicator fura-2 (Molecular Probes, Inc., Eugene, Oreg.). Gel filtered platelets in Hepes-Tyrode's buffer were loaded with fura-2 by incubation at 37° C. with 1 μM fura-2/acetoxymethyl ester for 45 min according to the method of Rasmussen et al., J. Biol. Chem. 268, 14322 (1993). The labeled platelets were then re-gel filtered to remove any excess probe. Aliquots of the labeled platelet suspension were transferred into a quartz cuvette with a magnetic stirrer, which was then placed in a thermostatically controlled chamber at 37° C. in a fluorescence spectrophotometer (Dual Wave Length Shimazdu SP5000 Spectrofluorometer, Shimazdu USA, Pittsburgh, Pa.). Reagents were directly added to the cuvette. The excitation wave lengths varied between 340 and 380 nm. The fluorescence was measured by recording emitted light at 510 nm as reported by Fisher et al, Mol. Pharm. 35, 195 (1989). The minimum emission was determined on a 20 mM digitonin, 10 mM EGTA solubilized platelet sample; maximum emission was determined on the same sample with 10 mM Ca^2+ added. The intraplatelet free Ca^2+ concentration was calculated by the method of Grykiewicz et al., J. Biol. Chem. 260, 3440 (1985). The ratio of the fluorescence readings was calculated as R=340/380 nm and processed according to the equation [Ca^2+ ]i =KD ((R-Rmin)/Rmax -R))(Sf2 /Sb2) to determine the intraplatelet free Ca^2+ concentration. The KD for fura-2 was assumed to be 224 nM. Rmax and Rmin are the maximum and minimum fluorescence ratios measured at the end of the experiment, respectively; Sf2 and Sb2 are the fluorescence values at 380 nm in the absence and presence of saturating [Ca^2+ ], respectively.

## RPPGFSPFR [BK, bradykinin]
[1]; read-out: IC50 AGGREGATION (inhibition of α-thrombin-induced platelet aggregation)
  pIC50: 3.60
[1]; read-out: IC50 SECRETION (inhibition of α-thrombin-induced platelet secretion)
  pIC50: 3.00
[2]; FIG. 2, concentration not given
  inhibition of α-thrombin-induced calcium mobilization: block
[2]; gel filtered platelets, read-out: IC50, α-thrombin-induced Ca2+ mobilization
  pIC50: 3.64
